Laboratory results published in patent US20250345483A1, “WIDE RANGE SYNTHETIC PEPTIDE NUCLEIC ACIDS AND THEIR APPLICATIONS” (Carilion Clinic, priority 2024, published 2025).

Test system: gentamicin-resistant P. aeruginosa, Pa383-ΔrahU::GM
Test: Biofilm biomass, aqueous or dried onto 96-well plates
Type: cell-based, Pseudomonas aeruginosa
Conditions: 32 h incubation
Protocol: An equimolar (10 μM per antisense-PNA) cocktail of the antisense-PNAs rsmA 0, amrZ 0, and rpoS 0 with 50% methanol (MeOH) (total volume: 60 μL) was dried onto a 96-well clear flat bottom polystyrene tissue culture-treated microplate in a Fisherbrand™ Isotemp™ Digital Dry Bath/Block Heater at 37° C. 60 μL of 100 μg/mL gentamicin was also dried onto wells. Gentamicin-resistant P. aeruginosa, Pa383-ΔrahU::GM was subcultured as described above (Rao, J. et al., 2011)
Biofilms were stained with 175 μL 0.1% crystal violet (CV), rinsed with sterile water until the water ran clear, solubilized in 100 μL of 33% glacial acetic acid (GAA), and absorbance was measured using a spectrophotometer at 590 nm (Wilson, C. et al., 2017).

## gentamicin
aq, vs untreated in M9+ media
  average biofilm biomass: no statistically significant difference
Dried in MeOH, vs dried MeOH control wells
  average biofilm biomass: no statistically significant difference
